According to ChEMBL document CHEMBL5653627 (J Neurochem, 2017):

Columns and labels:
Assay type in all cases: functional
SMA-560 [1] = experiment: Induction of apoptosis in mouse SMA-560 cells assessed as early apoptotic cells incubated for 72 hrs by Annexin V-FITC/PI staining based flow cytometric analysis (reference value: 0.0056%)
SMA-560 [2] = experiment: Induction of apoptosis in mouse SMA-560 cells assessed as live cells incubated for 72 hrs by Annexin V-FITC/PI staining based flow cytometric analysis (reference value: 84.6%)
SMA-560 [3] = experiment: Induction of apoptosis in mouse SMA-560 cells assessed as late apoptotic cells incubated for 72 hrs by Annexin V-FITC/PI staining based flow cytometric analysis (reference value: 1.83%)

CN[C@@H]1C[C@H]2O[C@@](C)([C@@H]1OC)n1c3ccccc3c3c4c(c5c6ccccc6n2c5c31)C(=O)NC4 [STAUROSPORINE]
Activity (SMA-560 [1]): 0% | Activity (SMA-560 [2]): 1.29% | Activity (SMA-560 [3]): 87.7%
